The test system of test [1] is A549. Kind of test: In vitro cytotoxic activity against A549 tumor cell line by SRB assay at 72 hour at a concentration 10E-8 (M/L). It is filed as functional, Homo sapiens. (The SRB assay estimates cell density from bound dye.)
Test [2] deals with P388. Kind of test: In vitro cytotoxic activity against P388 tumor cell line by MTT assay at 48 hour at a concentration 10E-6 (M/L). It is filed as functional, Mus musculus. (Tetrazolium assays rely on reduction of a dye to a coloured formazan, in cell work by metabolically active cells.)
In test [3] the test system is P388. In words: In vitro cytotoxic activity against P388 tumor cell line by MTT assay at 48 hour at a concentration 10E-5 (M/L). The test is classed as functional, Mus musculus.
Test [4] relates to P388. In words: In vitro cytotoxic activity against P388 tumor cell line by MTT assay at 48 hour at a concentration 10E-8 (M/L). It is filed as functional, Mus musculus.
Test [5] concerns P388. Kind of test: In vitro cytotoxic activity against P388 tumor cell line by MTT assay at 48 hour at a concentration 10E-4 (M/L). The test is classed as functional, Mus musculus.
Test [6] concerns A549. In words: In vitro cytotoxic activity against A549 tumor cell line by SRB assay at 72 hour at a concentration 10E-7 (M/L). It is filed as functional, Homo sapiens.
Test [7] has as its system A549. In words: In vitro cytotoxic activity against A549 tumor cell line by SRB assay at 72 hour at a concentration 10E-4 (M/L). The test is classed as functional, Homo sapiens.
In test [8] the test system is A549. In words: In vitro cytotoxic activity against A549 tumor cell line by SRB assay at 72 hour at a concentration 10E-5 (M/L). It is filed as functional, Homo sapiens.
For test [9], the system named is A549. In words: In vitro cytotoxic activity against A549 tumor cell line by SRB assay at 72 hour at a concentration 10E-6 (M/L). It is filed as functional, Homo sapiens.
Test [10] concerns P388. Kind of test: In vitro cytotoxic activity against P388 tumor cell line by MTT assay at 48 hour at a concentration 10E-7 (M/L). The test is classed as functional, Mus musculus.

This passage reports Inhibition results from ChEMBL document CHEMBL1131974, “Asymmetric synthesis and antitumor activity of cycloalkanin” (1999).

Broadly, the Inhibition is the drop in the measured response relative to a control, in per cent. High values mean a strong effect, low ones a weak effect.

With `CC1(C)CC[C@H](C2=CC(=O)c3c(O)ccc(O)c3C2=O)O1`, the Inhibition with A549 [1] is given as 0%; in the test with P388 [2], 98.9%; in the test on P388 [3], 98.9%; in the test on P388 [4], 98.9%; in the test with P388 [5], 98.9%; with A549 [6] it was 14%. The Inhibition in the test on A549 [7] is given as 92.5%; with A549 [8] it was 93.5%; in the test with A549 [9], 24.7%; in the test with P388 [10] it was 98.9%.
